Assay results reported in the METLIN SMRT retention time set (Domingo-Almenara et al. 2019).

Experiment: gradient 5% acetonitrile 3 min, to 50% in 2 min, to 85% in 15 min, held 3 min, 100 µL/min
Conditions: column: Zorbax Extend-C18 2.1 x 50 mm; eluents: water / acetonitrile, 0.1% formic acid
Procedure, shortened: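 Pure standards were analyzed in mixtures of ~100 molecules using HPLC coupled to a quadrupole time-of-flight mass spectrometer, in both positive and negative ionization mode. Separation used a Zorbax Extend-C18 column (2.1 × 50 mm, 1.8 μm) at 100 μL/min, with water and acetonitrile each containing 0.1% formic acid. Dead and dwell volumes were 40 μL and 900 μL, and data were collected over 3 months. Retention time was read from computationally picked adduct peaks, each inspected manually.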

Row | Structure (SMILES) | RP-LC retention time [s]
1 | CCCNC(=O)Cn1nc2cc(-c3ccccc3)nc(C)n2c1=O | 766
2 | O=c1c(NCCc2ccc(Cl)cc2)nccn1-c1ccc2c(c1)OCO2 | 870
3 | CC(=O)Nc1ccc(C2(C(=O)O)CCC2)cc1 | 637
4 | O=C(c1cn(-c2cc(N3CCSCC3)ncn2)cn1)N1CCN(c2ccccc2)CC1 | 877
5 | Cc1ccc(-c2nc(CCN(C)C(=O)NCc3ccccc3)no2)cc1 | 905
6 | Clc1ccc2nc(-c3ccc(N4CCOCC4)cc3)c(Nc3ccccc3)n2c1 | 752
7 | Cc1cccc(S(=O)Cc2ccc(C(=O)NCCN3CCOCC3)o2)c1 (stereo not drawn) | 583
8 | COc1cccc(CNC2=NCCNC23CCN(S(=O)(=O)c2ccc(Cl)cc2)CC3)c1 | 738
9 | O=C(NCc1csc(C2CCN(C(=O)c3ccc(Cl)cc3)CC2)n1)C1CCC1 | 761
10 | Cc1ccc(N2CCC(NC(=O)Nc3ccccc3C)C2=O)cc1C (stereo not drawn) | 875
11 | Cc1ccc(S(=O)(=O)N2C(=O)CCC2C(=O)N2CCc3ccccc32)cc1C (stereo not drawn) | 1000
12 | O=C(NCc1ccccc1F)C1CCN(C(=O)c2ncn3c2COC(c2ccc(F)cc2)C3)CC1 (stereo not drawn) | 736
13 | O=C(NCCN1CCN(Cc2ccccc2)CC1)c1cc(=O)n2c(nc3ccccc32)s1 | 649
14 | CCN1CCn2cc(C(=O)N3CCN(c4ccccc4Cl)CC3)nc2C1 | 622
15 | Cc1cccc(CC(=O)N2CCCn3cc(-c4cccc(C#N)c4)nc32)c1 | 782
16 | CC(C)NC(=O)c1nnc(-c2ccc(S(=O)(=O)N(C)C)cc2)o1 | 737
17 | c1ccc2c(Oc3nc(Nc4ccc(N5CCOCC5)cc4)c4ncn(C5CCCCC5)c4n3)cccc2c1 | 1180
18 | O=C(C1CCCC1)N1CCN(Cc2nnnn2-c2ccccc2)CC1 | 712
19 | Cc1noc(CN2CCN(C3CCN(Cc4ccc(C(F)(F)F)cc4)C3)C2=O)n1 (stereo not drawn) | 645
20 | Cc1ccc(CNC(=O)N(C)CCc2noc(-c3ccc(F)cc3)n2)cc1 | 915
21 | CC(C)CCNC(=O)CN1C(=O)CCn2nc(-c3cn(C)c4ccccc34)cc21 | 807
22 | O=C(Cc1ccc(Cl)cc1)N1CCc2nc[nH]c2C1 | 590
23 | CSc1cccc(NC(=O)Cn2c(=O)n(-c3ccccc3)c(=O)c3c2cc(C)n3C)c1 | 861

Row | Structure (SMILES) | RP-LC retention time [s]
24 | Cc1cccc2nnc(N3CCN(C(=O)c4cccs4)CC3)n12 | 618
25 | Cn1cnc2cc(CNC(=O)CCc3ccccc3)ccc21 | 604
26 | O=C(CCCSc1ccc(NC(=O)c2ccc(F)cc2)nn1)NCc1cccs1 | 802
27 | Cn1cnc2c(C(=O)NCC3CCCO3)nn(-c3ccccc3)c2c1=O (stereo not drawn) | 641
28 | CCC1CCCCN1C(=O)CN1CCn2c1nc(C)c(C)c2=O (stereo not drawn) | 618
29 | COc1cc(NC(=O)CCc2c(-c3ccc(F)cc3)nc3ccccn23)cc(OC)c1 | 672
30 | COc1ccc(C(=O)N2CCc3ccc(C(=O)O)cc32)cc1 | 741
31 | COC(=O)c1nnn(-c2ccc(C)c(C)c2)c1C(=O)OC | 916
32 | O=C(NCc1ccc(-c2noc(-c3ccc(F)cc3F)n2)s1)C1CC1 | 893
33 | O=C(c1ccsc1)N1CCC(n2c(C3CCCC3)nc3cccnc32)C1 (stereo not drawn) | 636
34 | Cc1cccc(OCc2nc(CCN(C)C(=O)NC3CCCC3)no2)c1 | 894
35 | COC(=O)c1ccc(NC(=O)N2CCc3nc[nH]c3C2)cc1 | 591
36 | CCc1noc(-c2cnc3nc(C)ccc3c2NC(C)c2ccc(F)cc2)n1 (stereo not drawn) | 798
37 | O=C(c1cc(C2CC2)n(C2CCS(=O)(=O)C2)n1)N1CCc2ccccc21 (stereo not drawn) | 768
38 | COc1cccc(Cn2nc3ccc(S(=O)(=O)N4CCC(C)CC4)cn3c2=O)c1 | 900
39 | CC(C)c1noc(-c2ccn3c(CC(=O)NC4CCCCCC4)nnc3c2)n1 | 823
40 | Cc1csc(-n2nc(C)c(CC(=O)Nc3ccc(Cl)cc3)c2C)n1 | 997
41 | CCn1ccc2sc(C)c(C(=O)N3CCN(c4ccccc4)CC3)c2c1=O | 773
42 | COc1cc(-c2noc(Cn3ccn(-c4ccccc4)c(=O)c3=O)n2)cc(OC)c1OC | 749
43 | COC(=O)CCc1c(C)nc2c(c(-c3cccs3)nn2C2CCS(=O)(=O)C2)c1C (stereo not drawn) | 850
44 | Cc1sc(NC(=O)c2ccccc2Br)nc1-c1ccc2c(c1)N(C)C(=O)CO2 | 960
45 | O=C(C1CCCN(c2cnc3nccnc3c2)C1)N1CCC(N2CCCCC2)CC1 (stereo not drawn) | 557
46 | COc1ccc(-c2noc(C3CCCN3C(=O)c3ccccc3OC)n2)cc1OC (stereo not drawn) | 834

Row | Structure (SMILES) | RP-LC retention time [s]
47 | Cc1cccc(NS(=O)(=O)c2cc3n(c2)CCCNC3=O)c1C | 658
48 | Cc1ccc(CNC(=O)C2(CCO)CCN(c3ncccn3)C2)o1 (stereo not drawn) | 602
49 | Cc1cccc(NC(=O)C2CCCN(c3nc4ccccc4nc3C(F)(F)F)C2)c1C (stereo not drawn) | 830
50 | COc1ccc(CC(=O)N2C[C@@H]3C[C@H](NC(=O)c4ccccc4)[C@H]2C3)cc1 | 725
51 | O=C(Nc1ccccc1Br)N1CCc2nc[nH]c2C1 | 566
52 | CCC(=O)Nc1cc2c(cc1S(=O)(=O)c1ccccc1)n(CC)c(=O)n2CC | 786
53 | COc1ccc(-c2ccnc3nc(C4CCC4)nn23)c(F)c1 | 869
54 | CCn1cc(CC(=O)NCCOC)c2cccnc21 | 576
55 | COCc1nc(-c2ccc(OC3CN(Cc4ccncc4)C3)cc2)no1 | 589
56 | CCc1noc(-c2nc(-c3ccc(OC)c(OC)c3)no2)n1 | 976
57 | Cc1nc(-c2cc3cccc(C)c3nc2NCCc2ccccn2)no1 | 764
58 | Cn1c(=O)c2c(ncn2CC(=O)N2CCCn3nc(-c4cccc(F)c4)cc3C2)n(C)c1=O | 677
59 | COc1ccccc1CC(=O)N1CCC2(CC1)N=C(c1ccc(Cl)cc1)NO2 | 884
60 | COc1ccccc1OC(C)C(=O)N1CCN(c2nc(CN3CCOCC3)cs2)CC1 (stereo not drawn) | 621
61 | Cc1csc(-c2nnc(Nc3ccc(Oc4ncccc4-c4ccnc(N)n4)cc3)c3ccccc23)c1 | 731
62 | CC(C)CCN1CCC(C2CCN(C(=O)c3ccncc3)C2)CC1 (stereo not drawn) | 556
63 | OCCNCc1ccc(-c2cc(Cl)ccc2Cl)o1 | 657
64 | CC(=O)Oc1cc2c(C(=O)NCC3CCCO3)c(C)oc2c2ccccc12 (stereo not drawn) | 809
65 | Cc1cc(C)c(S(=O)(=O)N2CC(c3nc(Cc4ccccc4)no3)C2)cc1C | 1190
66 | COc1ccc(-c2cc(N)n[nH]2)c(OC)c1 | 595
67 | Cn1c(C(=O)NCCCN2CCCC2=O)cc2c(=O)oc3ccccc3c21 | 668
68 | O=C(CN1C(=O)CCc2cc(Br)ccc21)Nc1ccc2c(c1)OCCO2 | 912
